Results from paper PMC6632053, “Incorporation of Putative Helix-Breaking Amino Acids in the Design of Novel Stapled Peptides: Exploring Biophysical and Cellular Permeability Properties” (Molecules, 2019).
pKd: −log10 of the molar value. Several values for one entry are separate records, joined by “and”; a condition that tells them apart may be missing. Equal entries are not always repeated. Where two headings read alike, the source gives them in different places. Bridge positions count the residues as written; N and C are the ends. Square brackets hold non-standard residues; d marks the D form. Peptide text beside a SMILES is read from it. R8 = C=CCCCCCC[C@@](C)(N)C(=O)O; Cba = N[C@@H](CC1CCC1)C(=O)O; S5 = C=CCCC[C@](C)(N)C(=O)O

Columns and labels:
[1] = Circular dichroism (CD) α-helicity; type: physicochemical; details: for Helicity (%): CD of free peptide, 25 °C, 1 mM Hepes pH 7.4, 5% methanol
Description: A total of 5 µL of the 10 mM stock peptide was mixed with 45 µL of 100% methanol, and dried for 2 h in the SpeedVac concentrator (Thermo Scientific). The dried peptide was reconstituted in a buffer (1 mM Hepes pH 7.4 and 5% methanol) to a concentration of 1 mM. The peptide sample was placed in a quartz cuvette with a path length of 0.2 cm. The peptide concentration was determined by the absorbance of the peptide at […]. The CD spectrum was recorded from 300 to 190 nm using the Chirascan-plus qCD machine (Applied Photophysics, Surrey, UK), at 25 °C. All experiments were done in duplicates. The CD spectrum was converted to mean residue ellipticity, before deconvolution and estimation of the secondary structure components of the peptide using the CDNN software (distributed by Applied Photophysics).

human Mdm2 1–125 = target: T1, human Mdm2 1–125 (Homo sapiens, UniProt Q00987); experiment: Mdm2 binding assay (competitive fluorescence anisotropy/polarization); details: for Kd: competitive fluorescence polarization, read-out: Mdm2 (nM), Mdm2 binding (Kd)
T1 construct: GST (N); His6 (internal); TEV cleavage site ENLYFQG (internal); made in house; host or cells: Escherichia coli BL21 (DE3) Rosetta T1R
T1 sequence (Q00987 with tags, fused parts or gaps): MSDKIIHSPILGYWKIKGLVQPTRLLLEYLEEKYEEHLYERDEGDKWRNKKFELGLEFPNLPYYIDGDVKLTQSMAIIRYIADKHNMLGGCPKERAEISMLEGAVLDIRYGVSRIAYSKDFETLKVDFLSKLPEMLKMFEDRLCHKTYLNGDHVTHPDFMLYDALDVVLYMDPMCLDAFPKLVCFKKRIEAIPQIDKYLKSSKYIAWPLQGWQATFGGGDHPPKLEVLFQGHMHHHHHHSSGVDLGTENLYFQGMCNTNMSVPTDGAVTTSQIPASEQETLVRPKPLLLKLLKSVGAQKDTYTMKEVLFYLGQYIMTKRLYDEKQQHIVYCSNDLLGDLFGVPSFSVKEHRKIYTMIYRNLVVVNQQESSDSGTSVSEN
Description: The TEV (tobacco etch virus) cleavage site was changed from ENLYFQS to ENLYFQG to give a fusion protein with the following sequence:
Titrations were carried out with the concentration of Mdm2 held constant at 250 nM and the labeled peptide at 50 nM. The competing molecules were then titrated against the complex of the FAM-labeled peptide and protein. Apparent Kd values were determined by fitting the experimental data to the equations shown below:(2) r=r0+(rb−r0)×2(d^2−3e)cos(θ/3)−9/3Kd1+2(d^2−3e)cos(θ/3)−dd=Kd1+Kd2+[L]st+[L]t−[P]te=([L]t−[P]t)Kd1+([L]st−[P]t)Kd2+Kd1Kd2f=−Kd1Kd2[P]tθ=arcos[−2d^3+9de−27f/2(d^2−3e)^3] where [L]st and [L]t denote labeled ligand and total unlabeled ligand input concentrations, respectively. Kd2 is the dissociation constant of the interaction between the unlabeled ligand and the protein. In all competition experiments, it was assumed that [P]t > [L]st, otherwise considerable amounts of free labeled ligand would always be present and would interfere with measurements. Kd1 is the apparent Kd for the labeled peptide used and was experimentally determined as described in the previous paragraph. The FAM-labeled peptide was dissolved in dimethyl sulfoxide (DMSO) at 1 mM and diluted into the experimental buffer. Readings were carried out with an Envision Multilabel Reader (PerkinElmer). Experiments were carried out in PBS (2.7 mM KCl, 137mM NaCl, 10 mM Na2HPO4, and 2 mM KH2PO4 (pH 7.4)) and 0.1% Tween 20 buffer. All titrations were carried out in triplicate. Curve-fitting was carried out using Prism 4.0 (GraphPad). […] Negative control titrations of the ligands under investigation were also carried out with the fluorescently labeled peptide (in the absence of Mdm2) to ensure no interactions were occurring between the ligands and the FAM-labeled peptide.

[2] = system: p53 responsive β-lactamase reporter in HCT116 cells; experiment: p53 beta-lactamase reporter gene cellular functional assay; type: cell-based; details: p53 reporter assay, HCT116, read-out: Cellular (µM), cellular activity (EC50)
Description: HCT116 cells were stably transfected with a p53 responsive β-lactamase reporter and were seeded into a 384-well plate at a density of 8000 cells per well. Cells were maintained in McCoy’s 5A Medium with 10% fetal bovine serum (FBS), Blasticidin, and Penicillin/Streptomycin. The cells were incubated overnight, followed by removal of cell growth media and replacement with Opti-MEM either containing 0% FBS or 10% FBS. […] The final working concentration of DMSO was 0.5%. β-lactamase activity was detected using the ToxBLAzer Dual Screen (Invitrogen), as per the manufacturer’s instructions. Measurements were made using the Envision multiplate reader (Perkin–Elmer).

Row | SMILES | Helicity (%) ([1]; Table 1) | Kd (human Mdm2 1–125; Table 1) | EC50 ([2]; Table 1) | Helicity (%) ([1]; Table 2) | Kd (human Mdm2 1–125; Table 2) | EC50 ([2]; Table 2) | α-helicity by CD ([1]; listed as Pro^9) | pKd (human Mdm2 1–125)
1 | CC(=O)N[C@@H](CC(C)C)C(=O)N[C@H](C(=O)N[C@@H](C)C(=O)N[C@]1(C)CCCCCCC=CCCC[C@@](C)(C(=O)N[C@@H](CO)C(=O)N[C@@H](C)C(=O)N[C@@H](C)C(N)=O)NC(=O)[C@H](CC2CCC2)NC(=O)[C@H](CC(C)C)NC(=O)[C@H](CCC(N)=O)NC(=O)[C@H](Cc2c[nH]c3ccccc23)NC(=O)[C@H](Cc2ccc(O)cc2)NC(=O)[C@H](CCC(=O)O)NC1=O)[C@@H](C)O [Peptide F3A] (Ac-LTA[R8]EYWQL[Cba][S5]SAA-NH2; staple 4-11) | 48.4% | 3600 nM | 37 µM | – | – | – | – | –
2 | CC(=O)N[C@@H](C)C(=O)N[C@H](C(=O)N[C@@H](Cc1ccccc1)C(=O)N[C@]1(C)CCCCCCC=CCCC[C@@](C)(C(=O)N[C@@H](CO)C(=O)N[C@@H](C)C(=O)N[C@@H](C)C(N)=O)NC(=O)[C@H](CC2CCC2)NC(=O)[C@H](CC(C)C)NC(=O)[C@H](CCC(N)=O)NC(=O)[C@H](Cc2c[nH]c3ccccc23)NC(=O)[C@H](Cc2ccc(O)cc2)NC(=O)[C@H](CCC(=O)O)NC1=O)[C@@H](C)O [Peptide L1A] (Ac-ATF[R8]EYWQL[Cba][S5]SAA-NH2; staple 4-11) | 53.3% | 17.6 nM | 0.5 µM | – | – | – | – | –
3 | CC(=O)N[C@@H](CCCCN=[N+]=[N-])C(=O)NCCC(=O)NCC(=O)N[C@H](C(=O)N[C@@H](Cc1ccccc1)C(=O)N[C@]1(C)CCCCCCC=CCCC[C@@](C)(C(=O)N[C@@H](CO)C(=O)N[C@@H](C)C(=O)N[C@@H](C)C(N)=O)NC(=O)[C@H](CC2CCC2)NC(=O)[C@H](CCC(N)=O)NC(=O)[C@H](C)NC(=O)[C@H](Cc2c[nH]c3ccccc23)NC(=O)[C@H](Cc2ccc(O)cc2)NC(=O)[C@H](CCC(=O)O)NC1=O)[C@@H](C)O [Peptide L1G] | – | – | – | 44.6% | 22.1 nM | 1.6 µM | – | –
4 | CC(=O)N[C@@H](CCCCN=[N+]=[N-])C(=O)NCCC(=O)N1CCC[C@H]1C(=O)N[C@H](C(=O)N[C@@H](Cc1ccccc1)C(=O)N[C@]1(C)CCCCCCC=CCCC[C@@](C)(C(=O)N[C@@H](CO)C(=O)N[C@@H](C)C(=O)N[C@@H](C)C(N)=O)NC(=O)[C@H](CC2CCC2)NC(=O)[C@H](CCC(N)=O)NC(=O)[C@H](C)NC(=O)[C@H](Cc2c[nH]c3ccccc23)NC(=O)[C@H](Cc2ccc(O)cc2)NC(=O)[C@H](CCC(=O)O)NC1=O)[C@@H](C)O [Peptide L1P] | – | – | – | 41.6% | 21.9 nM | 0.75 µM | – | –
5 | CC(=O)N[C@@H](CC(C)C)C(=O)N[C@H](C(=O)N[C@@H](Cc1ccccc1)C(=O)N[C@]1(C)CCCCCCC=CCCC[C@@](C)(C(=O)N[C@@H](CO)C(=O)N[C@@H](C)C(=O)N[C@@H](C)C(N)=O)NC(=O)[C@H](CC2CCC2)NC(=O)[C@H](C)NC(=O)[C@H](CCC(N)=O)NC(=O)[C@H](Cc2c[nH]c3ccccc23)NC(=O)[C@H](Cc2ccc(O)cc2)NC(=O)[C@H](CCC(=O)O)NC1=O)[C@@H](C)O [Peptide L9A] (Ac-LTF[R8]EYWQA[Cba][S5]SAA-NH2; staple 4-11) | 48.7% | 12 nM | 0.16 µM | – | – | – | – | –
6 | CC(=O)N[C@@H](CC(C)C)C(=O)N[C@H](C(=O)N[C@@H](Cc1ccccc1)C(=O)N[C@]1(C)CCCCCCC=CCCC[C@@](C)(C(=O)N[C@@H](CO)C(=O)N[C@@H](C)C(=O)N[C@@H](C)C(N)=O)NC(=O)[C@H](CC2CCC2)NC(=O)[C@H](CC(C)C)NC(=O)[C@H](C)NC(=O)[C@H](Cc2c[nH]c3ccccc23)NC(=O)[C@H](Cc2ccc(O)cc2)NC(=O)[C@H](CCC(=O)O)NC1=O)[C@@H](C)O [Peptide Q8A] | 33.4% | 26.5 nM | 0.1 µM | – | – | – | – | –
7 | CC(=O)N[C@@H](CCCCN=[N+]=[N-])C(=O)NCCC(=O)N[C@@H](CC(C)C)C(=O)N[C@H](C(=O)N[C@@H](Cc1ccccc1)C(=O)N[C@]1(C)CCCCCCC=CCCC[C@@](C)(C(=O)N[C@@H](CO)C(=O)N[C@@H](C)C(=O)N[C@@H](C)C(N)=O)NC(=O)[C@H](CC2CCC2)NC(=O)CNC(=O)[C@H](C)NC(=O)[C@H](Cc2c[nH]c3ccccc23)NC(=O)[C@H](Cc2ccc(O)cc2)NC(=O)[C@H](CCC(=O)O)NC1=O)[C@@H](C)O [Peptide Q9G] | – | – | – | 38.8% | 42 nM | 0.68 µM | – | –
8 | CC(=O)N[C@@H](CCCCN=[N+]=[N-])C(=O)NCCC(=O)N[C@@H](CC(C)C)C(=O)N[C@H](C(=O)N[C@@H](Cc1ccccc1)C(=O)N[C@]1(C)CCCCCCC=CCCC[C@@](C)(C(=O)N[C@@H](CO)C(=O)N[C@@H](C)C(=O)N[C@@H](C)C(N)=O)NC(=O)[C@H](CC2CCC2)NC(=O)[C@@H]2CCCN2C(=O)[C@H](C)NC(=O)[C@H](Cc2c[nH]c3ccccc23)NC(=O)[C@H](Cc2ccc(O)cc2)NC(=O)[C@H](CCC(=O)O)NC1=O)[C@@H](C)O [Peptide Q9P] | – | – | – | 27.4% | 77.1 nM | 3.1 µM | < 30% and 27.4% | –
9 | CC(=O)N[C@@H](CC(C)C)C(=O)N[C@H](C(=O)N[C@@H](Cc1ccccc1)C(=O)N[C@]1(C)CCCCCCC=CCCC[C@@](C)(C(=O)N[C@@H](C)C(=O)N[C@@H](C)C(=O)N[C@@H](C)C(N)=O)NC(=O)[C@H](CC2CCC2)NC(=O)[C@H](CC(C)C)NC(=O)[C@H](CCC(N)=O)NC(=O)[C@H](Cc2c[nH]c3ccccc23)NC(=O)[C@H](Cc2ccc(O)cc2)NC(=O)[C@H](CCC(=O)O)NC1=O)[C@@H](C)O [Peptide S12A] (Ac-LTF[R8]EYWQL[Cba][S5]AAA-NH2; staple 4-11) | 36.5% | 20.4 nM | 0.35 µM | – | – | – | – | –
10 | CC(=O)N[C@@H](CCCCN=[N+]=[N-])C(=O)NCCC(=O)N[C@@H](CC(C)C)C(=O)N[C@H](C(=O)N[C@@H](Cc1ccccc1)C(=O)N[C@]1(C)CCCCCCC=CCCC[C@@](C)(C(=O)NCC(=O)N[C@@H](C)C(=O)N[C@@H](C)C(N)=O)NC(=O)[C@H](CC2CCC2)NC(=O)[C@H](CCC(N)=O)NC(=O)[C@H](C)NC(=O)[C@H](Cc2c[nH]c3ccccc23)NC(=O)[C@H](Cc2ccc(O)cc2)NC(=O)[C@H](CCC(=O)O)NC1=O)[C@@H](C)O [Peptide S12G] | – | – | – | 46.5% | – | 0.65 µM | – | 7.72
11 | CC(=O)N[C@@H](CCCCN=[N+]=[N-])C(=O)NCCC(=O)N[C@@H](CC(C)C)C(=O)N[C@H](C(=O)N[C@@H](Cc1ccccc1)C(=O)N[C@]1(C)CCCCCCC=CCCC[C@@](C)(C(=O)N2CCC[C@H]2C(=O)N[C@@H](C)C(=O)N[C@@H](C)C(N)=O)NC(=O)[C@H](CC2CCC2)NC(=O)[C@H](CCC(N)=O)NC(=O)[C@H](C)NC(=O)[C@H](Cc2c[nH]c3ccccc23)NC(=O)[C@H](Cc2ccc(O)cc2)NC(=O)[C@H](CCC(=O)O)NC1=O)[C@@H](C)O [Peptide S12P] | – | – | – | 30.8% | 45.7 nM | 3.7 µM | – | –
12 | CC(=O)N[C@@H](CC(C)C)C(=O)N[C@@H](C)C(=O)N[C@@H](Cc1ccccc1)C(=O)N[C@]1(C)CCCCCCC=CCCC[C@@](C)(C(=O)N[C@@H](CO)C(=O)N[C@@H](C)C(=O)N[C@@H](C)C(N)=O)NC(=O)[C@H](CC2CCC2)NC(=O)[C@H](CC(C)C)NC(=O)[C@H](CCC(N)=O)NC(=O)[C@H](Cc2c[nH]c3ccccc23)NC(=O)[C@H](Cc2ccc(O)cc2)NC(=O)[C@H](CCC(=O)O)NC1=O [Peptide T2A] (Ac-LAF[R8]EYWQL[Cba][S5]SAA-NH2; staple 4-11) | 36.2% | 21.3 nM | 1 µM | – | – | – | – | –
